Laboratory results taken from patent EP3305318A1, “[6R]-5,10-METHYLENETETRAHYDROFOLATE IN 5-FLUOROURACIL BASED CHEMOTHERAPY” (Isofol Medical AB, priority 2016, dated 2018).
Like-named read-outs stand apart in the source and are kept apart here.

Experiments:
[1] = tested on: solid tumours; details: cited from earlier work
[2] = tested on: metastatic breast cancer; details: 5-FU combined with cyclophosphamide and methotrexate (CMF); cited from earlier work
[3] = tested on: advanced and recurring head and neck squamous cell cancer; details: 5-FU in combination therapies with platinum compounds; cited from earlier work
[4] = tested on: colorectal tumors; details: cited from earlier work
[5] = molecular target: T1, TS (Lacticaseibacillus casei, UniProt P00469); details: cited from earlier work
T1 sequence (P00469 1-316): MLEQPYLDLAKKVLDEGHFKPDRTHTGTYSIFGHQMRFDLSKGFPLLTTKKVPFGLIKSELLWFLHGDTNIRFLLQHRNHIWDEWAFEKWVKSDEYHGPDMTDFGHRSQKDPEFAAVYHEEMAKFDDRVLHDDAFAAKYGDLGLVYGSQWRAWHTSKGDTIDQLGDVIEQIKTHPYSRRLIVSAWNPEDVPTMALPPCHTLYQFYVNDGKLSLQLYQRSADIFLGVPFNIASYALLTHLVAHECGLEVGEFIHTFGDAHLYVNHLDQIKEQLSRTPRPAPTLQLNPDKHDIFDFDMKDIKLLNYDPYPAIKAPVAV

[6] = tested on: colorectal cancer; details: Phase IIb study; cited from earlier work
[7] = tested on: previously untreated metastatic colorectal cancer; details: Phase II trial; cited from earlier work
[8] = tested on: pancreas cancer; details: CoFactor combined with 5-FU, phase I/II; cited from earlier work
[9] = tested on: colorectal cancer; assay: 5-FU bolus followed by multiple IV boluses of [6R]-MTHF in colorectal cancer patients (Phase I/II dose cohort trial); type: in vivo, human; details: initial administration of 5-FU followed by multiple IV boluses of [6R]-MTHF, interval of about 10 min - 4 hours between each bolus
Description: As used herein, the term ORR shall refer to the Objective Response Rate, ie. the proportion of patients with reduction in tumor burden of a predefined amount. This shall be calculated as follows: ORR = Sum of partial responses plus complete responses as per RECIST 1.1 (a set of published rules that define when tumours in cancer patients progress during treatments, the responses being defined as: • Complete Response: Disappearance of all target lesions. • Partial Response: At least a 30% decrease in the sum of the diameters of target lesions, taking as reference the baseline sum diameters. (Eisenhauer EA, Therasse P, Bogaerts J, Schwartz LH, Sargent D, Ford R, et al. New response evaluation criteria in solid tumours: revised RECIST guideline (version 1.1). Eur J Cancer. 2009 Jan; 45(2):228-47)
The safety and efficacy of [6R]-5,10-methylenetetrahydrofolate is analyzed in an open-label, multiple-site, Phase I/II Dose Cohort Trial in combination with a fixed dose of 5-Fluorouracil (5-FU) alone or together with a fixed dose of Oxaliplatin or Irinotecan in patients with stage IV colorectal cancer. […]
[6R]-5,10-Methylenetetrahydrofolic acid is formulated as a lyophylised powder containing 100 mg per vial (calculated as free acid). […]

Q: For O=c1[nH]cc(F)c(=O)[nH]1 [5-FU, 5-fluorouracil], which overall response rate ([1]; 5-FU alone) is on record?
A: The overall response rate was 10-15%.

Q: And the OS [2]?
A: The OS was “around 20 months”.

Q: What about the reponse rate [2] of the same compound?
A: The reponse rate was “around 20%”.

Q: What about the Response rates [3] of the same compound?
A: The Response rates was “around 30%”.

Q: And the survival time [3]?
A: The survival time was “around 6 months”.

Q: What about the response rate ([4]; 5-FU given as a monotherapy) of the same compound?
A: Its response rate is “around 10%”.

Q: With Nc1nc2c(c(=O)[nH]1)N1CN(c3ccc(C(=O)N[C@@H](CCC(=O)O)C(=O)O)cc3)C[C@@H]1CN2 [(6S)-isomer] as the compound, how does the “effect on the natural [6R]-isomer as co-substrate for TS” value [5] read?
A: Its value is “partial competitive inhibitor”.

Q: Which results are given for Nc1nc2c(c(=O)[nH]1)N1CN(c3ccc(C(=O)N[C@@H](CCC(=O)[O-])C(=O)[O-])cc3)CC1CN2.[Ca+2] (stereo partly shown) [CoFactor®, [6R,S]-5,10-methylene-THF Ca salt]?
A: efficacy or safety compared with leucovorin study arm [6]: no significant differences; response rate [7]: 35%; clinical benefit, defined as stable disease or tumor response [8]: 40 % of patients

Q: For Nc1nc2c(c(=O)[nH]1)N(C=O)C(CNc1ccc(C(=O)N[C@@H](CCC(=O)O)C(=O)O)cc1)CN2 (stereo partly shown) [LV, Leucovorin], which overall response rates ([1]; LV added to 5-FU) is on record?
A: Its overall response rates is “over 20%”.

Q: What about the response rate ([4]; Leucovorin (LV) added to 5-FU) of the same compound?
A: Its response rate is 21%.

Q: With Nc1nc2c(c(=O)[nH]1)N1CN(c3ccc(C(=O)N[C@@H](CCC(=O)O)C(=O)O)cc3)C[C@H]1CN2 [[6R]-MTHF, [6R]-5,10-methylenetetrahydrofolate] as the compound, how does the “ORRs (objective response rates)” value [9] read?
A: Its value is 50-60%.
